Source: publication PMC4914996, “Elimination of a ligand gating site generates a supersensitive olfactory receptor” (Scientific Reports, 2016)
Where a chain is given by its changes, count along the chain named. Like-named read-outs stand apart in the source and are kept apart here.

Legend:
Assay in all cases: Fluo-4 Ca2+ influx through cAMP-gated CNG channel in stable HEK293 line
[1] = target: T1, TAAR13c (Danio rerio, UniProt Q5QNP2); format: cell-based
T1 sequence (Q5QNP2 1-341): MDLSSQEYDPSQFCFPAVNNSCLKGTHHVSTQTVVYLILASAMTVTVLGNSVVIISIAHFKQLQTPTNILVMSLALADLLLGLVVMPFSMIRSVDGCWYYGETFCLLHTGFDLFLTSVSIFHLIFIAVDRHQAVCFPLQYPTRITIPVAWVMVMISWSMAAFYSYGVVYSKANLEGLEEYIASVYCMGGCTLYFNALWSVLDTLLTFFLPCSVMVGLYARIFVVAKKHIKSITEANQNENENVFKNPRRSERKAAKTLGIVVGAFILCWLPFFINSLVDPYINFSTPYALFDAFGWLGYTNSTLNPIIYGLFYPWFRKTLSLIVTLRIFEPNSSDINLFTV
Excerpt: (§1) Fluo-4 Ca2+ influx through cAMP-gated CNG channel in stable HEK293 line on TAAR13c

[2] = target: T2, TAAR13c (Danio rerio, UniProt Q5QNP2, W296Y); format: cell-based
T2 sequence (Q5QNP2 1-341 W296Y): T1 sequence (Q5QNP2 1-341) with W296Y
Excerpt: as §1

[3] = target: T3, TAAR13c (Danio rerio, UniProt Q5QNP2, D279N); format: cell-based
T3 sequence (Q5QNP2 1-341 D279N): T1 sequence (Q5QNP2 1-341) with D279N
Excerpt: as §1

[4] = target: T4, TAAR13c (Danio rerio, UniProt Q5QNP2, D279A); format: cell-based
T4 sequence (Q5QNP2 1-341 D279A): T1 sequence (Q5QNP2 1-341) with D279A
Excerpt: as §1

[5] = target: T5, TAAR13c (Danio rerio, UniProt Q5QNP2, D279E); format: cell-based
T5 sequence (Q5QNP2 1-341 D279E): T1 sequence (Q5QNP2 1-341) with D279E
Excerpt: as §1

[6] = target: T6, TAAR13c (Danio rerio, UniProt Q5QNP2, D78E); format: cell-based
T6 sequence (Q5QNP2 1-341 D78E): T1 sequence (Q5QNP2 1-341) with D78E
Excerpt: as §1

[7] = target: T7, TAAR13c (Danio rerio, UniProt Q5QNP2, W296F); format: cell-based, Homo sapiens
T7 sequence (Q5QNP2 1-341 W296F): T1 sequence (Q5QNP2 1-341) with W296F
Excerpt: as §1

[8] = target: T8, TAAR13c (Danio rerio, UniProt Q5QNP2, W296G); format: cell-based; settings: read-out: EC50 (μM, mean±SEM) / cad
T8 sequence (Q5QNP2 1-341 W296G): T1 sequence (Q5QNP2 1-341) with W296G
Excerpt: as §1

[9] = read-out: EC50 (μM, mean±SEM) / put
[10] = read-out: EC50 (μM, mean±SEM) / cad

EC50 [1, 9]	EC50 [2, 9]	EC50 [3, 9]	EC50 [4, 9]	EC50 [5, 9]	EC50 [6, 9]	EC50 [7, 9]	EC50 [1, 10]	EC50 [2, 10]	EC50 [8]	EC50 [3, 10]	EC50 [4, 10]	EC50 [5, 10]	EC50 [6, 10]	EC50 [7, 10]	SMILES
> 1000 µM	> 1000 µM	7.3 ± 3.6 µM	31 ± 13 µM	10 ± 4 µM	> 1000 µM	> 1000 µM									NCCCCN [putrescine]
							15.2 ± 2.2 µM	28 ± 8 µM	55 ± 48 µM	1.1 ± 0.8 µM	2.1 ± 1 µM	0.72 ± 0.24 µM	64 ± 28 µM	42 ± 6 µM	NCCCCCN [cadaverine]
